Reference: patent US20240059703A1 (AMGEN INC., priority 2021, published 2024)
pIC50: −log10 of the molar value.

Columns and labels:
[1] = tested on: MIA PaCa-2 (human pancreatic carcinoma) cells; assay: Cell Viability Assay (CellTiter-Glo), MIA PaCa-2; type: cell-based
Procedure: Serially-diluted compound or DMSO was added to the cells, and plates were incubated at 37° C., 5% CO2 for 72 h. Cell viability was measured using a CellTiter-Glo® Luminescent Cell Viability Assay kit (Promega) according to the manufacturer's protocol. The luminescence signal of treated samples was normalized to DMSO control, and data were analyzed using a 4-parameter logistic model to calculate IC50 values.

[2] = tested on: A549 (human lung carcinoma) cells; assay: Cell Viability Assay (CellTiter-Glo), A549; type: cell-based; settings: Homo sapiens, A549, 72 h
In short: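 RPMI 1640/10% FBS; seed 1.67E+04 cells/mL, o/n 37° C., 5% CO2; serial-dilution cmpd 72 h; CellTiter-Glo luminescence vs DMSO; 4-parameter logistic fit → IC50.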

KRAS G12C = KRAS G12C (Homo sapiens (Human), UniProt P01116, C118A/G12C); assay: 2 h coupled exchange assay; type: biochemical; settings: Avg 2 h Coupled exchange IC50, 2 h compound pre-incubation
Procedure: The term “2 h coupled exchange assay” or “20 h coupled exchange assay” as used herein refers to the assay described in the Section entitled “BIOLOGICAL EVALUATION.”

[3] = SOS-mediated nucleotide exchange

KRAS G12C, sequence (P01116 other isoform, or with tags, fused parts or gaps G12C/C118A): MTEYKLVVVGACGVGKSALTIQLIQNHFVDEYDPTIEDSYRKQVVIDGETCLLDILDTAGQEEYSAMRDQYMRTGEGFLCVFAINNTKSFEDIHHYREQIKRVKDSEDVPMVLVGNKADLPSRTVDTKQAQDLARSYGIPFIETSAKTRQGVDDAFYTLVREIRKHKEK

## C=CC(=O)N1CC2(CCN(c3nc4c(c(-c5c(C)ccc6cnn(C)c56)c3C#N)C[C@H]3C[C@@H]4C3)C2)C1 (single isomer, unassigned) [Example 13-118]
[1]; Homo sapiens, MIA PaCa-2, 72 h
  pIC50: 6.55
[2]
  pIC50: < 5.30
KRAS G12C; [3]
  pIC50: 7.14

## C=CC(=O)N1CC2(CCN(c3nc4c(c(-c5ccccc5Cl)c3C#N)CCC(c3ccnn3C)C4)C2)C1 [Example 13-19, (7R)-4-(2-chlorophenyl)-7-(1-methyl-1H-pyrazol-5-yl)-2-(2-(2-propenoyl)-2,6-diazaspiro[3.4]octan-6-yl)-5,6,7,8-tetrahydro-3-quinolinecarbonitrile|(7S)-4-(2-chlorophenyl)-7-(1-methyl-1H-pyrazol-5-yl)-2-(2-(2-propenoyl)-2,6-diazaspiro[3.4]octan-6-yl)-5,6,7,8-tetrahydro-3-quinolinecarbonitrile]
[1]; Homo sapiens, MIA PaCa-2, 72 h
  pIC50: 6.47
[2]
  pIC50: < 5.30
KRAS G12C; [3]
  pIC50: 7.19

## C=CC(=O)N1CC2(CCN(c3cc4c(c(-c5c(C)ccc6[nH]ncc56)c3C)COCC4)C2)C1 [Example 14-104, 1-(6-(7-methyl-8-(5-methyl-1H-indazol-4-yl)-3,4-dihydro-1H-2-benzopyran-6-yl)-2,6-diazaspiro[3.4]octan-2-yl)-2-propen-1-one]
[1]; Homo sapiens, MIA PaCa-2, 72 h
  pIC50: 6.68
[2]
  pIC50: < 5.30
KRAS G12C
  pIC50: 6.62

## C=CC(=O)N1CC2(CCN(c3nc4c(F)cccc4c(-c4c(C)ccc5[nH]ncc45)c3C#N)C2)C1 [Example 1-4, 8-fluoro-4-(5-methyl-1H-indazol-4-yl)-2-(2-(2-propenoyl)-2,6-diazaspiro[3.4]octan-6-yl)-3-quinolinecarbonitrile]
[1]; Homo sapiens, MIA PaCa-2, 72 h
  pIC50: 5.86
[2]
  pIC50: 5.31
KRAS G12C; [3]
  pIC50: 6.54

## C=CC(=O)N1CC2(CCN(c3cc4c(c(-c5c(C)ccc6cnn(C)c56)c3C#N)CCC(C)(C)C4)C2)C1 [Example 2-97, 1-(1,6-dimethyl-1H-indazol-7-yl)-6,6-dimethyl-3-(2-(2-propenoyl)-2,6-diazaspiro[3.4]octan-6-yl)-5,6,7,8-tetrahydro-2-naphthalenecarbonitrile]
[1]; Homo sapiens, MIA PaCa-2, 72 h
  pIC50: 6.68
[2]
  pIC50: < 5.30
KRAS G12C; [3]
  pIC50: 7.09

## C=CC(=O)N1CC2(CCN(c3nc4c(c(-c5ncccc5F)c3C#N)CC[C@H](c3scnc3C)C4)C2)C1 [Example 23-60, (7S)-4-(3-fluoro-2-pyridinyl)-7-(4-methyl-1,3-thiazol-5-yl)-2-(2-(2-propenoyl)-2,6-diazaspiro[3.4]octan-6-yl)-5,6,7,8-tetrahydro-3-quinolinecarbonitrile]
[1]; Homo sapiens, MIA PaCa-2, 72 h
  pIC50: 7.33
[2]
  pIC50: 4.85
KRAS G12C
  pIC50: 7.62

## C=CC(=O)N1CC2(CCN(c3nc4c(c(-c5c(C(C)C)ccc6[nH]ncc56)n3)CCCC4)C2)C1 [Example 1-35, 1-(6-(4-(5-(2-propanyl)-1H-indazol-4-yl)-5,6,7,8-tetrahydro-2-quinazolinyl)-2,6-diazaspiro[3.4]octan-2-yl)-2-propen-1-one]
[1]; Homo sapiens, MIA PaCa-2, 72 h
  pIC50: 5.63
[2]
  pIC50: 5.15
KRAS G12C; [3]
  pIC50: 5.81

## C=CC(=O)N1CC2(CCN(c3nc4c(c(-c5cccc6cc(O)ccc56)c3C#N)COC(C)(C)C4)C2)C1 [Example 12-41, 4-(6-hydroxy-1-naphthalenyl)-7,7-dimethyl-2-(2-(2-propenoyl)-2,6-diazaspiro[3.4]octan-6-yl)-7,8-dihydro-5H-pyrano[4,3-b]pyridine-3-carbonitrile]
[1]; Homo sapiens, MIA PaCa-2, 72 h
  pIC50: 6.30
[2]
  pIC50: < 5.30
KRAS G12C; [3]
  pIC50: 6.96

## C=CC(=O)N1CC2(CCN(c3nc4c(c(-c5ccc(F)cc5F)c3C)CC[C@@H](c3c(C)cnn3C)C4)C2)C1 [Example 14-93, 1-(6-((7R)-4-(2,4-difluorophenyl)-7-(1,4-dimethyl-1H-pyrazol-5-yl)-3-methyl-5,6,7,8-tetrahydro-2-quinolinyl)-2,6-diazaspiro[3.4]octan-2-yl)-2-propen-1-one]
[1]; Homo sapiens, MIA PaCa-2, 72 h
  pIC50: 6.45
[2]
  pIC50: 4.91
KRAS G12C
  pIC50: 6.87

## C=CC(=O)N1CC2(CCN(c3nc4c(c(-c5cc(O)c(F)c6ccccc56)c3C#N)COC(C)(C)C4)C2)C1 (single isomer, unassigned) [Example 13-78, (P)-4-(4-fluoro-3-hydroxy-1-naphthalenyl)-7,7-dimethyl-2-(2-(2-propenoyl)-2,6-diazaspiro[3.4]octan-6-yl)-7,8-dihydro-5H-pyrano[4,3-b]pyridine-3-carbonitrile]
[1]; Homo sapiens, MIA PaCa-2, 72 h
  pIC50: 6.07
[2]
  pIC50: < 5.30
KRAS G12C; [3]
  pIC50: 7.12

## C=CC(=O)N1CC2(CCN(c3nc4c(c(-c5c(C)ccc6cnn(C)c56)n3)CCCC4)C2)C1 [Example 1-25, 1-(6-(4-(1,6-dimethyl-1H-indazol-7-yl)-5,6,7,8-tetrahydro-2-quinazolinyl)-2,6-diazaspiro[3.4]octan-2-yl)-2-propen-1-one]
[1]; Homo sapiens, MIA PaCa-2, 72 h
  pIC50: 5.05
[2]
  pIC50: 4.69
KRAS G12C; [3]
  pIC50: 5.59

## C=CC(=O)N1CC2(CCN(c3nc4c(c(-c5cccc(F)c5F)c3C#N)CCC(c3scnc3C)=C4)C2)C1 [Example 23-46, 4-(2,3-difluorophenyl)-7-(4-methyl-1,3-thiazol-5-yl)-2-(2-(2-propenoyl)-2,6-diazaspiro[3.4]octan-6-yl)-5,6-dihydro-3-quinolinecarbonitrile]
[1]; Homo sapiens, MIA PaCa-2, 72 h
  pIC50: 5.82
[2]
  pIC50: 5.27
KRAS G12C
  pIC50: 6.94

## C=CC(=O)N1CC2(CCN(c3nc4cc(-c5scnc5C)ccc4c(-c4ccccc4C)c3C#N)C2)C1 [Example 19-2, 4-(2-methylphenyl)-7-(4-methyl-1,3-thiazol-5-yl)-2-(2-(2-propenoyl)-2,6-diazaspiro[3.4]octan-6-yl)-3-quinolinecarbonitrile]
[1]; Homo sapiens, MIA PaCa-2, 72 h
  pIC50: 5.84
[2]
  pIC50: < 5.30
KRAS G12C
  pIC50: 6.90

## C=CC(=O)N1CC2(CCN(c3nc4cc(-c5scnc5C)ccc4c(-c4c(O)cccc4F)c3C#N)C2)C1 (single isomer, unassigned) [Example 19-4, (P)-4-(2-fluoro-6-hydroxyphenyl)-7-(4-methyl-1,3-thiazol-5-yl)-2-(2-(2-propenoyl)-2,6-diazaspiro[3.4]octan-6-yl)-3-quinolinecarbonitrile]
[1]; 72 h
  pIC50: 6.16
[2]
  pIC50: < 5.30
KRAS G12C
  pIC50: 7.42

## C=CC(=O)N1CC2(CCN(c3nc4c(c(-c5ccccc5F)c3C#N)CCC3(c5scnc5C)C4C3(F)F)C2)C1 (stereo not drawn) [Example 23-37]
[1]; Homo sapiens, MIA PaCa-2, 72 h
  pIC50: 5.51
[2]
  pIC50: 4.84
KRAS G12C
  pIC50: 6.75

## C=CC(=O)N1CC2(CCN(c3nc4c(c(-c5cc(O)ccc5C)c3C#N)C[C@H]3C[C@@H]4C3)C2)C1 [Example 13-113, (1S,9S)-6-(5-hydroxy-2-methylphenyl)-4-(2-(2-propenoyl)-2,6-diazaspiro[3.4]octan-6-yl)-3-azatricyclo[7.1.1.0^2,7]undeca-2,4,6-triene-5-carbonitrile]
[1]; Homo sapiens, MIA PaCa-2, 72 h
  pIC50: < 5.30
[2]
  pIC50: < 5.30
KRAS G12C; [3]
  pIC50: 7.15

## C=CC(=O)N1CC2(CCN(c3nc4c(c(-c5ccccc5F)c3C#N)CC[C@](C)(c3scnc3C)C4)C2)C1 [Example 23-12, (7S)-4-(2-fluorophenyl)-7-methyl-7-(4-methyl-1,3-thiazol-5-yl)-2-(2-(2-propenoyl)-2,6-diazaspiro[3.4]octan-6-yl)-5,6,7,8-tetrahydro-3-quinolinecarbonitrile]
[1]; Homo sapiens, MIA PaCa-2, 72 h
  pIC50: 6.12
[2]
  pIC50: 5.39
KRAS G12C
  pIC50: 6.97

## C=CC(=O)N1CC2(CCN(c3nc4c(c(-c5c(C)ccc6[nH]ncc56)c3C#N)C[C@H]3C[C@@H]4C3(C)C)C2)C1 (single isomer, unassigned) [Example 13-115]
[1]; Homo sapiens, MIA PaCa-2, 72 h
  pIC50: 8.05
[2]
  pIC50: < 5.30
KRAS G12C; [3]
  pIC50: 7.92

## C=CC(=O)N1CC2(CCN(c3nc4c(c(-c5c(C)ccc6cnn(C)c56)c3C#N)CCC(C)(C)C4)C2)C1 [Example 13-143, 4-(1,6-dimethyl-1H-indazol-7-yl)-7,7-dimethyl-2-(2-(2-propenoyl)-2,6-diazaspiro[3.4]octan-6-yl)-5,6,7,8-tetrahydro-3-quinolinecarbonitrile]
[1]; Homo sapiens, MIA PaCa-2, 72 h
  pIC50: 6.22
[2]
  pIC50: < 5.30
KRAS G12C; [3]
  pIC50: 7.48

## C=CC(=O)N1CC2(CCN(c3nc4c(c(-c5cccc6cc(O)ccc56)c3C)COC(C)(C)C4)C2)C1 (single isomer, unassigned) [Example 14-44, (P)-1-(6-(4-(6-hydroxy-1-naphthalenyl)-3,7,7-trimethyl-7,8-dihydro-5H-pyrano[4,3-b]pyridin-2-yl)-2,6-diazaspiro[3.4]octan-2-yl)-2-propen-1-one]
[1]; Homo sapiens, MIA PaCa-2, 72 h
  pIC50: 7.36
[2]
  pIC50: < 5.30
KRAS G12C
  pIC50: 7.15

## C=CC(=O)N1CC2(CCN(c3nc4c(c(-c5c(C)ccc6[nH]ncc56)c3C#N)COC3(CCOC3)C4)C2)C1 [Example 13-51, (3R)-4′-(5-methyl-1H-indazol-4-yl)-2′-(2-(2-propenoyl)-2,6-diazaspiro[3.4]octan-6-yl)-4,5,5′,8′-tetrahydrospiro[furan-3,7′-pyrano[4,3-b]pyridine]-3′-carbonitrile|(3S)-4′-(5-methyl-1H-indazol-4-yl)-2′-(2-(2-propenoyl)-2,6-diazaspiro[3.4]octan-6-yl)-4,5,5′,8′-tetrahydrospiro[furan-3,7′-pyrano[4,3-b]pyridine]-3′-carbonitrile]
[1]; Homo sapiens, MIA PaCa-2, 72 h
  pIC50: 6.54
[2]
  pIC50: < 5.30
KRAS G12C; [3]
  pIC50: 7.02

## C=CC(=O)N1CC2(CCN(c3nc4c(c(-c5cccc(C)c5C)n3)CCCC4)C2)C1 [Example 1-26, 1-(6-(4-(2,3-dimethylphenyl)-5,6,7,8-tetrahydro-2-quinazolinyl)-2,6-diazaspiro[3.4]octan-2-yl)-2-propen-1-one]
[1]; Homo sapiens, MIA PaCa-2, 72 h
  pIC50: 5.01
[2]
  pIC50: 4.86
KRAS G12C; [3]
  pIC50: 5.40
